Experimental data taken from ChEMBL document CHEMBL4270599, “Synthesis of a 3'-C-ethynyl-β-d-ribofuranose purine nucleoside library: Discovery of C7-deazapurine analogs as potent antiproliferative nucleosides” (Eur J Med Chem, 2018).

Tests used:
Format in all cases: functional
NCI-H23 [1] = experiment: Growth inhibition of human NCI-H23 cells assessed as cell growth at 10^-6 M incubated for 48 hrs by sulforhodamine B assay relative to control; conditions: NCI-H23, 48 h, read-out: Activity
RXF 393 = experiment: Cytotoxicity against human RXF393 cells after 48 hrs by SRB assay; conditions: RXF 393, 48 h
U-251 = experiment: Growth inhibition of human U251 cells assessed as cell growth at 10^-4 M incubated for 48 hrs by sulforhodamine B assay relative to control; conditions: U-251, 48 h, read-out: Activity
HCT-116 = experiment: Growth inhibition of human HCT116 cells assessed as cell growth at 10^-7 M incubated for 48 hrs by sulforhodamine B assay relative to control; conditions: HCT-116, 48 h, read-out: Activity
T47D = experiment: Growth inhibition of human T47D cells assessed as cell growth at 10^-8 M incubated for 48 hrs by sulforhodamine B assay relative to control; conditions: read-out: Activity
IGROV-1 = experiment: Growth inhibition of human IGROV1 cells assessed as cell growth at 10^-7 M incubated for 48 hrs by sulforhodamine B assay relative to control; conditions: IGROV-1, 48 h, read-out: Activity
SK-MEL-28 = experiment: Growth inhibition of human SK-MEL-28 cells assessed as cell growth at 10^-6 M incubated for 48 hrs by sulforhodamine B assay relative to control; conditions: SK-MEL-28, 48 h, read-out: Activity
EKVX = experiment: Growth inhibition of human EKVX cells assessed as cell growth at 10^-7 M incubated for 48 hrs by sulforhodamine B assay relative to control; conditions: read-out: Activity
SNB-19 = experiment: Growth inhibition of human SNB19 cells assessed as cell growth at 10^-6 M incubated for 48 hrs by sulforhodamine B assay relative to control; conditions: SNB-19, 48 h, read-out: Activity
K562 = experiment: Growth inhibition of human K562 cells assessed as cell growth at 10^-6 M incubated for 48 hrs by sulforhodamine B assay relative to control; conditions: K562, 48 h, read-out: Activity
KM12 = experiment: Growth inhibition of human KM12 cells assessed as cell growth at 10^-8 M incubated for 48 hrs by sulforhodamine B assay relative to control; conditions: KM12, 48 h, read-out: Activity
NCI-H226 = experiment: Growth inhibition of human NCI-H226 cells assessed as cell growth at 10^-4 M incubated for 48 hrs by sulforhodamine B assay relative to control; conditions: NCI-H226, 48 h, read-out: Activity
NCI-H23 [2] = experiment: Cytotoxicity against human NCI-H23 cells after 48 hrs by SRB assay; conditions: NCI-H23, 48 h
MOLT-4 [3] = experiment: Cytotoxicity against human MOLT4 cells after 48 hrs by SRB assay; conditions: MOLT-4, 48 h
OVCAR-4 [4] = experiment: Growth inhibition of human OVCAR4 cells assessed as cell growth at 10^-6 M incubated for 48 hrs by sulforhodamine B assay relative to control; conditions: OVCAR-4, 48 h, read-out: Activity
DU-145 = experiment: Growth inhibition of human DU145 cells assessed as cell growth at 10^-8 M incubated for 48 hrs by sulforhodamine B assay relative to control; conditions: DU-145, 48 h, read-out: Activity
MCF7 = experiment: Growth inhibition of human MCF7 cells assessed as cell growth at 10^-8 M incubated for 48 hrs by sulforhodamine B assay relative to control; conditions: MCF7, 48 h, read-out: Activity
SNB-75 = experiment: Cytotoxicity against human SNB75 cells after 48 hrs by SRB assay; conditions: SNB-75, 48 h
HCT-15 [5] = experiment: Growth inhibition of human HCT15 cells assessed as cell growth at 10^-5 M incubated for 48 hrs by sulforhodamine B assay relative to control; conditions: HCT-15, 48 h, read-out: Activity
SK-MEL-2 [6] = experiment: Cytotoxicity against human SK-MEL-2 cells after 48 hrs by SRB assay; conditions: SK-MEL-2, 48 h
HOP-92 = experiment: Growth inhibition of human HOP92 cells assessed as cell growth at 10^-7 M incubated for 48 hrs by sulforhodamine B assay relative to control; conditions: HOP-92, 48 h, read-out: Activity
HCT-15 [7] = experiment: Growth inhibition of human HCT15 cells assessed as cell growth at 10^-8 M incubated for 48 hrs by sulforhodamine B assay relative to control; conditions: HCT-15, 48 h, read-out: Activity
OVCAR-4 [8] = experiment: Growth inhibition of human OVCAR4 cells assessed as cell growth at 10^-5 M incubated for 48 hrs by sulforhodamine B assay relative to control; conditions: OVCAR-4, 48 h, read-out: Activity
SF-295 = experiment: Growth inhibition of human SF295 cells assessed as cell growth at 10^-8 M incubated for 48 hrs by sulforhodamine B assay relative to control; conditions: SF-295, 48 h, read-out: Activity
NCI/ADR-RES = experiment: Cytotoxicity against human NCI-ADR-RES cells after 48 hrs by SRB assay
A549 = experiment: Growth inhibition of human A549/ATCC cells assessed as cell growth at 10^-6 M incubated for 48 hrs by sulforhodamine B assay relative to control; conditions: A549, 48 h, read-out: Activity
RPMI-8226 = experiment: Growth inhibition of human RPMI8226 cells assessed as cell growth at 10^-6 M incubated for 48 hrs by sulforhodamine B assay relative to control; conditions: RPMI-8226, 48 h, read-out: Activity
SN12C = experiment: Growth inhibition of human SN12C cells assessed as cell growth at 10^-4 M incubated for 48 hrs by sulforhodamine B assay relative to control; conditions: read-out: Activity
OVCAR-4 [9] = experiment: Growth inhibition of human OVCAR4 cells assessed as cell growth at 10^-4 M incubated for 48 hrs by sulforhodamine B assay relative to control; conditions: OVCAR-4, 48 h, read-out: Activity
MOLT-4 [10] = experiment: Growth inhibition of human MOLT4 cells assessed as cell growth at 10^-6 M incubated for 48 hrs by sulforhodamine B assay relative to control; conditions: MOLT-4, 48 h, read-out: Activity
SK-MEL-2 [11] = experiment: Growth inhibition of human SK-MEL-2 cells assessed as cell growth at 10^-8 M incubated for 48 hrs by sulforhodamine B assay relative to control; conditions: SK-MEL-2, 48 h, read-out: Activity
MDA-MB-468 = experiment: Cytotoxicity against human MDA-MB-468 cells after 48 hrs by SRB assay; conditions: MDA-MB-468, 48 h
[12] = read-out: LC50 (the source's name)
[13] = read-out: pLC50 (the source's name) (converted)

SMILES: C#C[C@@]1(O)[C@@H](CO)O[C@@H](n2cc(F)c3c(N)ncnc32)[C@@H]1O
- growth at 1 µM (NCI-H23 [1]): 22%
- CC50 (RXF 393; [12]): > 100000 nM
- TGI (RXF 393; read-out: TGI): 2990 nM
- GI50 (RXF 393; read-out: pGI50 (converted)): 724 nM
- TGI (RXF 393; read-out: pTGI (converted)): 3020 nM
- growth at 100 µM (U-251): -18%
- growth at 0.1 µM (HCT-116): 60%
- growth at 0.01 µM (T47D): 101%
- growth at 0.1 µM (IGROV-1): 96%
- growth at 1 µM (SK-MEL-28): 72%
- growth at 0.1 µM (EKVX): 86%
- growth at 1 µM (SNB-19): 39%
- growth at 1 µM (K562): 16%
- growth at 0.01 µM (KM12): 104%
- growth at 100 µM (NCI-H226): -45%
- TGI (NCI-H23 [2]; read-out: TGI): 6850 nM
- GI50 (NCI-H23 [2]; read-out: pGI50 (converted)): 398 nM
- CC50 (NCI-H23 [2]; [13]): > 100000 nM
- TGI (NCI-H23 [2]; read-out: pTGI (converted)): 6920 nM
- TGI (MOLT-4 [3]; read-out: TGI): > 100000 nM
- GI50 (MOLT-4 [3]; read-out: pGI50 (converted)): 302 nM
- CC50 (MOLT-4 [3]; [13]): > 100000 nM
- TGI (MOLT-4 [3]; read-out: pTGI (converted)): > 100000 nM
- growth at 1 µM (OVCAR-4 [4]): 50%
- growth at 0.01 µM (DU-145): 103%
- growth at 0.01 µM (MCF7): 89%
- TGI (SNB-75; read-out: TGI): 2320 nM
- GI50 (SNB-75; read-out: pGI50 (converted)): 1020 nM
- CC50 (SNB-75; [13]): 5250 nM
- TGI (SNB-75; read-out: pTGI (converted)): 2340 nM
- growth at 10 µM (HCT-15 [5]): -18%
- CC50 (SK-MEL-2 [6]; [12]): > 100000 nM
- TGI (SK-MEL-2 [6]; read-out: TGI): 2870 nM
- GI50 (SK-MEL-2 [6]; read-out: pGI50 (converted)): 447 nM
- TGI (SK-MEL-2 [6]; read-out: pTGI (converted)): 2880 nM
- growth at 0.1 µM (HOP-92): -1%
- growth at 0.01 µM (HCT-15 [7]): 97%
- growth at 10 µM (OVCAR-4 [8]): -3%
- growth at 0.01 µM (SF-295): 98%
- TGI (NCI/ADR-RES; read-out: TGI): 11300 nM
- GI50 (NCI/ADR-RES; read-out: pGI50 (converted)): 309 nM
- CC50 (NCI/ADR-RES; [13]): > 100000 nM
- TGI (NCI/ADR-RES; read-out: pTGI (converted)): 11200 nM
- growth at 1 µM (A549): 19%
- growth at 1 µM (RPMI-8226): 1%
- growth at 100 µM (SN12C): -24%
- growth at 100 µM (OVCAR-4 [9]): -25%
- growth at 1 µM (MOLT-4 [10]): 11%
- growth at 0.01 µM (SK-MEL-2 [11]): 103%
- TGI (MDA-MB-468; read-out: TGI): 1530 nM
- GI50 (MDA-MB-468; read-out: pGI50 (converted)): 302 nM
- CC50 (MDA-MB-468; [13]): 7940 nM
- TGI (MDA-MB-468; read-out: pTGI (converted)): 1550 nM
